Reference: PMC12785511, “Integrative Profiling for BBB Permeability Using Capillary Electrochromatography, Experimental Physicochemical Parameters, and Ensemble Machine Learning” (International Journal of Molecular Sciences, 2025)
Like-named read-outs stand apart in the source and are kept apart here.

Key:
[1] = open-tubular capillary electrochromatography (CEC), permeability k′ parameter; format: in vitro ADME; details: pH 7.4 HEPES buffer 40 mM, migration times in coated and uncoated capillary, mean ± SD of three independent experiments
[2] = cited from earlier work
[3] = Sirius T3 automated potentiometric (pH-metric) titrations, pKa
[4] = Sirius T3 automated potentiometric titrations with n-octanol, log P / log D; details: for logP / logD: n-octanol/water; for Log D7.4: calculated based on the experimentally obtained pKa and log P data
physchem [5] = details: for logD: pH 7.4
physchem [6] = test: physchem
[7] = experimental in vivo measurements from rats, data retrieved from literature
[8] = ionic strength adjusted (ISA) water ([…] KCl), pKa ± SD, […] ISA water or Yasuda–Shedlovsky extrapolation from methanol cosolvent, value used for regression

CN(C)CCC=C1c2ccccc2CCc2ccccc21 [amitriptyline]
k′ ± SD (CEC) [1]: 0.00004 ± 0.00001 | Log BB [2, 7]: 1.30 | pKa [3, 8]: 9.23 ± 0.08 | logP [4]: 4.68 ± 0.02 | logD ([4]; pH 7.4): 2.84

CNCCc1ccccn1 [betahistine]
k′ ± SD (CEC) [1]: 0.03582 ± 0.00587 | Log BB [2, 7]: −0.30 | pKa [3, 8]: 9.84 | logP [4]: 0.49 ± 0.01 | logD ([4]; pH 7.4): -1.95

O=C(CCCN1CCC(O)(c2ccc(Br)cc2)CC1)c1ccc(F)cc1 [bromperidol]
k′ ± SD (CEC) [1]: −0.00795 ± 0.00034 | Log BB [2, 7]: 1.38 | pKa [3, 8]: 8.45 ± 0.1 | logP [4]: 3.87 ± 0.05 | logD ([4]; pH 7.4): 2.81

O=C(O)CCCc1ccc(N(CCCl)CCCl)cc1 [chlorambucil]
k′ ± SD (CEC) [1]: 0.00397 ± 0.00087 | logP (physchem [5]): 3.71 ± 0.02 | logD (physchem [5]): 1.07 | Log BB [2, 7]: −1.70 | pKa [3]: 4.72 ± 0.04

Clc1cccc(Cl)c1N=C1NCCN1 [clonidine]
k′ ± SD (CEC) [1]: 0.00321 ± 0.00046 | Log BB [2, 7]: 0.11 | pKa ([3]; ionic strength adjusted (ISA) water ([…] KCl)): 8.12 ± 0.01

COc1ccc2c3c1O[C@H]1[C@@H](O)C=C[C@H]4[C@@H](C2)N(C)CC[C@@]341 [codeine]
k′ ± SD (CEC) [1]: −0.01188 ± 0.00888 | logP (physchem [5]): 1.14 ± 0.01 | logD (physchem [5]): 0.26 | Log BB ([2]; rat, in vivo): 0.55

CCC1(C2=CCCCC2)C(=O)NC(=O)NC1=O [cyclobarbital]
k′ ± SD (CEC) [1]: 0.00186 ± 0.00088 | logD (physchem [5]): 1.16 | Log BB ([2]; rat, in vivo): −0.30

OCCN1CCN(CCCN2c3ccccc3Sc3ccc(C(F)(F)F)cc32)CC1 [fluphenazine]
k′ ± SD (CEC) [1]: 0.111 ± 0.00192 | Log BB [2, 7]: 1.51 | pKa [3, 8]: 7.79 ± 0.07 | logP [4]: 5.12 ± 0.06 | logD ([4]; pH 7.4): 4.58

COc1ccc2c3c1O[C@H]1C[C@@H](O)C=C[C@@]31CCN(C)C2 [galanthamine]
logP (physchem [5]): 1.15 | logD (physchem [5]): 0.18 | Log BB ([2]; rat, in vivo): 0.00

OCCOCCN1CCN(C(c2ccccc2)c2ccc(Cl)cc2)CC1 (stereo not shown) [hydroxyzine]
k′ ± SD (CEC) [1]: −0.00058 ± 0.00031 | Log BB [2, 7]: 0.90 | pKa [3, 8]: 7.66 ± 0.04 | logP [4]: 3.73 ± 0.03 | logD ([4]; pH 7.4): 3.34

O=C(c1ccccc1)c1ccc2n1CCC2C(=O)O (stereo not shown) [ketorolac]
k′ ± SD (CEC) [1]: 0.02127 ± 0.00131 | Log BB [2, 7]: −2.00 | pKa [3, 8]: 3.64 ± 0.06 | logP [4]: 2.9 ± 0.04 | logD ([4]; pH 7.4): -0.05

CN(C)C(=O)C(CCN1CCC(O)(c2ccc(Cl)cc2)CC1)(c1ccccc1)c1ccccc1 [loperamide]
k′ ± SD (CEC) [1]: 0.0147 ± 0.00102 | logD (physchem [5]): 3.21 | Log BB [2, 7]: 0.70

CN1CCN2c3ccccc3Cc3ccccc3C2C1 (stereo not shown) [mianserin]
k′ ± SD (CEC) [1]: −0.02148 ± 0.00155 | Log BB [2, 7]: 0.99 | pKa [3, 8]: 7.25 ± 0.03 | logP [4]: 3.74 ± 0.01 | logD ([4]; pH 7.4): 3.5

CNCCC=C1c2ccccc2CCc2ccccc21 [nortriptyline]
k′ ± SD (CEC) [1]: −0.01133 ± 0.0021 | Log BB [2, 7]: 1.04 | pKa [3, 8]: 10.05 ± 0.03 | logP [4]: 4.29 ± 0.01 | logD ([4]; pH 7.4): 1.79

Fc1ccc([C@@H]2CCNC[C@H]2COc2ccc3c(c2)OCO3)cc1 [paroxetine]
k′ ± SD (CEC) [1]: 0.02144 ± 0.00689 | Log BB [2, 7]: 0.48 | pKa [3, 8]: 9.76 ± 0.08 | logP [4]: 3.39 ± 0.04

CCC1(c2ccccc2)C(=O)NC(=O)NC1=O [phenobarbital]
k′ ± SD (CEC) [1]: −0.01824 ± 0.00855 | logD (physchem [5]): 0.98 | Log BB ([2]; rat, in vivo): −0.12

CNC(=O)Oc1ccc2c(c1)[C@]1(C)CCN(C)[C@@H]1N2C [physostigmine]
k′ ± SD (CEC) [1]: 0.01268 ± 0.00087 | pKa (physchem [6]): 8.24 ± 0.04 | Log BB ([2]; rat, in vivo): 0.08

CN(C)CCCN1c2ccccc2Sc2ccccc21 [promazine]
k′ ± SD (CEC) [1]: −0.01399 ± 0.00228 | Log BB [2, 7]: 1.23 | pKa [3, 8]: 9.39 | logP [4]: 4.54 | logD ([4]; pH 1): 0.83 | logD ([4]; pH 1.2): 0.83 | logD ([4]; pH 2): 0.83 | logD ([4]; pH 3): 0.83 | logD ([4]; pH 4): 0.84 | logD ([4]; pH 5): 0.91 | logD ([4]; pH 6): 1.32 | logD ([4]; pH 6.5): 1.71 | logD ([4]; pH 7): 2.17 | logD ([4]; pH 7.4): 2.55 | logD ([4]; pH 8): 3.14 | logD ([4]; pH 9): 4 | logD ([4]; pH 10): 4.45 | logD ([4]; pH 11): 4.53 | logD ([4]; pH 12): 4.54

CNC(=C[N+](=O)[O-])NCCSCc1ccc(CN(C)C)o1 [ranitidine]
k′ ± SD (CEC) [1]: −0.00256 ± 0.00041 | Log BB [2, 7]: −1.23 | pKa [3, 8]: 8.43 ± 0.01 | logP [4]: 0.34 ± 0.02 | logD ([4]; pH 7.4): -0.75

CCN(C)C(=O)Oc1cccc([C@H](C)N(C)C)c1 [rivastigmine]
k′ ± SD (CEC) [1]: −0.00018 ± 0.00009 | logD (physchem [5]): 0.66

CCCN(CCC)CCc1cccc2c1CC(=O)N2 [ropinirole]
k′ ± SD (CEC) [1]: −0.01252 ± 0.00126 | pKa (physchem [6]): 9.7 ± 0.05

CC(C)(C)NCC(O)c1ccc(O)c(CO)c1 (stereo not shown) [salbutamol]
k′ ± SD (CEC) [1]: −0.0103 ± 0.00502 | Log BB [2, 7]: −1.03 | pKa [3, 8]: 9.6 ± 0.01 | logP [4]: 0.3 ± 0.04 | Log D7.4 ([4]; pH 7.4): −1.90

S=C(NC1CCCCC1)N1CCC(c2cnc[nH]2)CC1 [thioperamide]
k′ ± SD (CEC) [1]: 0.01849 ± 0.00363 | logD (physchem [5]): 2.27 | Log BB [2, 7]: −0.16

O=c1n(CCCN2CCN(c3cccc(Cl)c3)CC2)nc2ccccn12 [trazodone]
k′ ± SD (CEC) [1]: −0.0108 ± 0.00292 | Log BB [2, 7]: 0.30 | pKa [3, 8]: 6.83 ± 0.04 | logP [4]: 2.98 | logD ([4]; pH 7.4): 2.88

Cc1ccc(/C(=C\CN2CCCC2)c2ccccn2)cc1 [triprolidine]
k′ ± SD (CEC) [1]: 0.01006 ± 0.00233 | Log BB [2, 7]: 0.78 | pKa [3, 8]: 9.39 ± 0.06 | logP [4]: 3.87 ± 0.01 | Log D7.4 ([4]; pH 7.4): 1.88

COc1ccc(C(CN(C)C)C2(O)CCCCC2)cc1 (stereo not shown) [venlafaxine]
k′ ± SD (CEC) [1]: −0.01411 ± 0.00205 | Log BB [2, 7]: 0.48 | pKa [3, 8]: 9.67 ± 0.02 | logP [4]: 2.97 | logD ([4]; pH 7.4): 0.7

CN(C)CCc1c[nH]c2ccc(C[C@H]3COC(=O)N3)cc12 [zolmitriptan]
k′ ± SD (CEC) [1]: −0.00882 ± 0.00356 | Log BB [2, 7]: −1.40 | pKa [3, 8]: 9.6 ± 0.05 | logP [4]: 1.19 ± 0.01 | logD ([4]; pH 7.4): -1.01
